This passage reports MIC and Activity results from ChEMBL document CHEMBL4002559, “Micromonohalimanes A and B: Antibacterial Halimane-Type Diterpenoids from a Marine Micromonospora Species” (2016).

In brackets after ≈: the same amount, converted by molar mass. Activity calls are given as the source filed them. The calls are words filed in the database; no cut-off is given here.

Test [1] has as its system Staphylococcus aureus. The test is described as follows: Antibacterial activity against methicillin-resistant Staphylococcus aureus ATCC 33591 after 18 hrs by dilution method. It counts as functional. To be noted: ATCC 33591, 18 h.
Test [2] relates to Staphylococcus aureus. Description: Bacteriostatic activity against methicillin-resistant Staphylococcus aureus ATCC 33591 by LB plate method. It counts as functional.

In the test on Staphylococcus aureus [1], `CC(=O)O[C@H](C[C@@]1(C)[C@@H]2CCCC(C)(C)C2=CC[C@@H]1C)[C@@]1(O)COC(=O)[C@@H]1O` registered an MIC of more than 200 µg/mL.

For the molecule `CC(=O)O[C@H]1C(=O)O[C@H](C[C@@]2(C)[C@@H]3CCCC(C)(C)C3=CC[C@@H]2C)[C@]1(O)CCl`, in the test on Staphylococcus aureus [1], 40 µg/mL (≈ 96.9 µM) was the least that counted as inhibitory (MIC). In addition, the outcome in the test on Staphylococcus aureus [2] was Active.

A word on the MIC: it is the lowest concentration that inhibits growth of the organism.
